Assay results published in US20250215039A1, “NUCLEOSIDES FOR TREATING CANCER” (PRIMEFOUR THERAPEUTICS, INC., priority 2022, published 2025).
Where two headings read alike, the source gives them in different places.

Legend:
[1] = system: cancer cell lines; assay: Cancer cell proliferation activity (CellTiterGlo, 72 h); assay type: cell-based; details: 72 h, 72 h, read-out: IC50
How it was run: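 Cells seeded overnight at 37 °C, then dosed with compound at 0.1% final DMSO and incubated 72 h at 37 °C (5% or 10% CO2 by medium).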

[2] = biological target: human cytidine deaminase (CDA) (Homo sapiens, UniProt P32320); assay: Metabolism by human cytidine deaminase (CDA), substrate absorbance at 290 nm
Sequence of human cytidine deaminase (CDA) (P32320 whole entry): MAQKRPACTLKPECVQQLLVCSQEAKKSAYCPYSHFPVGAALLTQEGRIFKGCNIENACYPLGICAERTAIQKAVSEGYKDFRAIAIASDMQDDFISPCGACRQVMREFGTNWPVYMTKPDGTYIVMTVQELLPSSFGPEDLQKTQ
Description: Transfer 7.2 μl of each of the substrate DMSO stock in step 2 into a 500 μl 96-Well V-bottom Microplate, clear SBS footprint, cat #P-96-450V-C
Add 352.8 μl assay buffer to the wells
For deaminated product compounds mix 4 μl product with 196 μl assay buffer
This was incubated at 37° C. for 1 h. 200 μl of this mixture was transferred into the assay plate to serve as the product control.
Product+buffer: mix 80 ul of the 2.5× intermediate product stocks (from step 3) with 120 ul assay buffer into product control (no enzyme) wells
Incubate the plate alongside the 20 nM CDA enzyme intermediate stock at 37° C. to temperature equilibrate reagents
Add 120 μl of the 20 nM enzyme mix into the Substrate+CDA wells and start reading at 290 nm every 30 s for about 60 min
50 and 200 uM substrate and product
In 100 mM Tris, pH 7.5, 100 mM KCl, 0.8% carryover DMSO
5 min incubation at 37° C.
Absorbance at 290 nm every 30 s at 37° C. for 1 h using FlexStation 3
Convert A290 to concentration of substrate remaining at time t after enzyme addition:
[formula] • where: • St=absorbance reading of: substrate+CDA wells at time t • So=Average absorbance reading of: substrate+buffer wells • Po=Average absorbance reading of: product+buffer wells • [S]t=initial substrate concentration • Use GraphPad to plot [substrate] against time to calculate initial velocity or slope (μMs^−1) i.e. the linear range of each curve • Express rate in s^−1 by dividing initial velocity by the total enzyme concentration.
Plot rate against [substrate] and fit data to standard Michaelis Menten equation to obtain kcat and KM parameters.

IC50 ([1]; 5637 cell line (bladder)): > 50 µM
IC50 ([1]; CLS439 cell line (bladder)): > 50 µM
IC50 ([1]; HS729 cell line (muscle)): > 50 µM
IC50 ([1]; JAR cell line (placenta)): > 50 µM
IC50 ([1]; U20S cell line, bone): > 50 µM
IC50 ([1]; Homo sapiens, 22Rv1, 72 h, 22RV1 cell line (prostate)): > 50 µM
IC50 ([1]; Homo sapiens, 786-0, 72 h, 786O cell line (kidney)): > 50 µM
IC50 ([1]; Homo sapiens, A204, 72 h, A204 cell line (muscle)): 7.27 µM
IC50 ([1]; Homo sapiens, A549, 72 h, A549 cell line, lung): > 50 µM
IC50 ([1]; Homo sapiens, A673, 72 h, A673 cell line (bone)): > 50 µM
IC50 ([1]; Homo sapiens, A2780, 72 h, A2780 cell line (ovary)): > 50 µM
IC50 ([1]; Homo sapiens, A-375, 72 h, A375 cell line (skin)): > 50 µM
IC50 ([1]; Homo sapiens, A-431, 72 h, A431 cell line (skin)): > 50 µM
IC50 ([1]; Homo sapiens, ACHN, ACHN cell line (kidney)): > 50 µM
IC50 ([1]; Homo sapiens, ASPC1, 72 h, ASPC1 cell line (pancreas)): > 50 µM
IC50 ([1]; Homo sapiens, BT-20, 72 h, BT20 cell line (breast)): > 50 µM
IC50 ([1]; Homo sapiens, BXPC-3, 72 h, BXPC3 cell line (pancreas)): > 50 µM
IC50 ([1]; Homo sapiens, C-33-A, C33A cell line, endometrial): > 50 µM
IC50 ([1]; Homo sapiens, CAKI-1, 72 h, CAKI1 cell line (kidney)): > 50 µM
IC50 ([1]; Homo sapiens, COLO 205, 72 h, COLO205 cell line (colon)): > 50 µM
IC50 ([1]; Homo sapiens, COLO-678, 72 h, COLO678 cell line (colon)): > 50 µM
IC50 ([1]; Homo sapiens, Ca-Ski, CASKI cell line, endometrial): > 50 µM
IC50 ([1]; Homo sapiens, Caco-2, 72 h, CACO2 cell line (colon)): > 50 µM
IC50 ([1]; Homo sapiens, Calu-6, 72 h, CALU6 cell line (lung)): > 50 µM
IC50 ([1]; Homo sapiens, DLD-1, 72 h, DLD1 cell line (colon)): > 50 µM
IC50 ([1]; Homo sapiens, DU-145, 72 h, DU145 cell line (prostate)): > 50 µM
IC50 ([1]; Homo sapiens, EFO-21, 72 h, EFO21 cell line (ovary)): > 50 µM
IC50 ([1]; Homo sapiens, EJ-28, 72 h, EJ28 cell line (bladder)): > 50 µM
IC50 ([1]; Homo sapiens, Granta-519, 72 h, GRANTA-519 cell line (hematological)): 0.46 µM
IC50 ([1]; Homo sapiens, HCT-15, 72 h, HCT15 cell line (colon)): > 50 µM
IC50 ([1]; Homo sapiens, HCT-116, 72 h, HCT116 cell line (colon)): > 50 µM
IC50 ([1]; Homo sapiens, HEK293, 72 h, HEK293 cell line (kidney)): > 50 µM
IC50 ([1]; Homo sapiens, HL-60, 72 h, HL-60 cell line (hematological)): > 50 µM
IC50 ([1]; Homo sapiens, HT-29, 72 h, HT29 cell line (colon)): > 50 µM
IC50 ([1]; Homo sapiens, HT-1080, 72 h, HT1080 cell line (connective tissue)): > 50 µM
IC50 ([1]; Homo sapiens, HeLa, HELA cell line, endometrial): > 50 µM
IC50 ([1]; Homo sapiens, HepG2, 72 h, HEPG2 cell line (liver)): > 50 µM
IC50 ([1]; Homo sapiens, Hs-578T, HS578T cell line, breast): > 50 µM
IC50 ([1]; Homo sapiens, IGROV-1, 72 h, IGROV1 cell line (ovary)): > 50 µM
IC50 ([1]; Homo sapiens, IMR-90, 72 h, IMR90 cell line, lung): > 50 µM
IC50 ([1]; Homo sapiens, J82, 72 h, J82 cell line (bladder)): > 50 µM
IC50 ([1]; Homo sapiens, JEG-3, 72 h, JEG3 cell line (placenta)): > 50 µM
IC50 ([1]; Homo sapiens, JIMT-1, 72 h, JIMT1 cell line (breast)): > 50 µM
IC50 ([1]; Homo sapiens, K562, 72 h, K-562 cell line (hematological)): > 50 µM
IC50 ([1]; Homo sapiens, Kasumi 1, 72 h, KASUMI-1 cell line (hematological)): > 50 µM
IC50 ([1]; Homo sapiens, L-363, 72 h, L-363 cell line (hematological)): > 50 µM
IC50 ([1]; Homo sapiens, LoVo, LOVO cell line (colon)): > 50 µM
IC50 ([1]; Homo sapiens, MCF7, 72 h, MCF7 cell line (breast)): > 50 µM
IC50 ([1]; Homo sapiens, MDA-MB-231, 72 h, MDAMB231 cell line (breast)): > 50 µM
IC50 ([1]; Homo sapiens, MDA-MB-435, 72 h, MDAMB435 cell line (skin)): > 50 µM
IC50 ([1]; Homo sapiens, MDA-MB-436, 72 h, MDAMB436 cell line (breast)): > 50 µM
IC50 ([1]; Homo sapiens, MDA-MB-468, 72 h, MDAMB468 cell line (breast)): > 50 µM
IC50 ([1]; Homo sapiens, MG-63, 72 h, MG63 cell line (bone)): > 50 µM
IC50 ([1]; Homo sapiens, MHH-ES-1, 72 h, MHHES1 cell line (bone)): > 50 µM
IC50 ([1]; Homo sapiens, MIA PaCa-2, 72 h, MIAPACA2 cell line (pancreas)): > 50 µM
IC50 ([1]; Homo sapiens, MINO, MINO cell line (hematological)): 0.68 µM
IC50 ([1]; Homo sapiens, MV4-11, 72 h, MV4-11 cell line (hematological)): > 50 µM
IC50 ([1]; Homo sapiens, NCI-H23, 72 h, NCI-H23 cell line (lung)): > 50 µM
IC50 ([1]; Homo sapiens, NCI-H82, 72 h, NCIH82 cell line (lung)): > 50 µM
IC50 ([1]; Homo sapiens, NCI-H292, 72 h, NCIH292 cell line (lung)): > 50 µM
IC50 ([1]; Homo sapiens, NCI-H460, 72 h, NCIH460 cell line (lung)): > 50 µM
IC50 ([1]; Homo sapiens, OVCAR-3, 72 h, OVCAR3 cell line (ovary)): > 50 µM
IC50 ([1]; Homo sapiens, OVCAR-4, 72 h, OVCAR4 cell line (ovary)): > 50 µM
IC50 ([1]; Homo sapiens, PANC-1, 72 h, PANC1 cell line (pancreas)): > 50 µM
IC50 ([1]; Homo sapiens, PC-3, 72 h, PC3 cell line (prostate)): > 50 µM
IC50 ([1]; Homo sapiens, PLC-PRF-5, 72 h, PLCPRF5 cell line (liver)): > 50 µM
IC50 ([1]; Homo sapiens, Panc1005, 72 h, PANC1005 cell line (pancreas)): > 50 µM
IC50 ([1]; Homo sapiens, RD, RD cell line (muscle)): > 50 µM
IC50 ([1]; Homo sapiens, Ramos, RAMOS cell line (hematological)): 8.68 µM
IC50 ([1]; Homo sapiens, SAOS-2, 72 h, SAOS2 cell line (bone)): 2.05 µM
IC50 ([1]; Homo sapiens, SF-268, 72 h, SF268 cell line (brain)): > 50 µM
IC50 ([1]; Homo sapiens, SF-295, 72 h, SF295 cell line (brain)): > 50 µM
IC50 ([1]; Homo sapiens, SK-BR-3, 72 h, SKBR3 cell line (breast)): > 50 µM
IC50 ([1]; Homo sapiens, SK-HEP1, 72 h, SKHEP1 cell line (liver)): > 50 µM
IC50 ([1]; Homo sapiens, SK-LMS-1, 72 h, SKLMS1 cell line (uterus)): > 50 µM
IC50 ([1]; Homo sapiens, SK-MEL-5, 72 h, SKMEL5 cell line, skin): > 50 µM
IC50 ([1]; Homo sapiens, SK-MEL-28, 72 h, SKMEL28 cell line (skin)): > 50 µM
IC50 ([1]; Homo sapiens, SK-N-AS, SKNAS cell line (brain)): > 50 µM
IC50 ([1]; Homo sapiens, SK-N-SH, SKNSH cell line (brain)): > 50 µM
IC50 ([1]; Homo sapiens, SK-OV-3, 72 h, SKOV3 cell line (ovary)): > 50 µM
IC50 ([1]; Homo sapiens, SNB-75, 72 h, SNB75 cell line (brain)): > 50 µM
IC50 ([1]; Homo sapiens, SU-DHL10, 72 h, SU-DHL-10 cell line (hematological)): 2.55 µM
IC50 ([1]; Homo sapiens, SU-DHL-6, 72 h, SU-DHL-6 cell line (hematological)): > 50 µM
IC50 ([1]; Homo sapiens, SW-620, 72 h, SW620 cell line (colon)): > 50 µM
IC50 ([1]; Homo sapiens, T-24, 72 h, T24 cell line (bladder)): > 50 µM
IC50 ([1]; Homo sapiens, TE-671, 72 h, TE671 cell line (muscle)): > 50 µM
IC50 ([1]; Homo sapiens, THP-1, 72 h, THP-1 cell line (hematological)): > 50 µM
IC50 ([1]; Homo sapiens, U-87 MG, U87MG cell line (brain)): > 50 µM
IC50 ([1]; Homo sapiens, UMUC3, 72 h, UMUC3 cell line (bladder)): > 50 µM
IC50 ([1]; Homo sapiens, UO-31, 72 h, UO31 cell line (kidney)): > 50 µM
IC50 ([1]; Homo sapiens, WSU-NHL, WSU-NHL cell line (hematological)): 2.32 µM
IC50 ([1]; MT-3, 72 h, MT3 cell line (breast)): > 50 µM
IC50 ([1]; NCI-H358M, NCIH358M cell line (lung)): > 50 µM
IC50 ([1]; PBMC, PBMC (hematological)): > 50 µM
IC50 ([1]; RD-ES, RDES cell line (bone)): > 50 µM
metabolism (deamination) by human CDA (line graph) ([2]; 12 nM CDA, 50 and 200 uM substrate, 37° C., pH 7.5, figure legends FIG. 4-9): not metabolized
substrate conversion by CDA (Inactive) ([2]; rate of substrate conversion at 200 μM, could not be fitted): Inactive
Structure (SMILES): N#C[C@]1(CO)O[C@@H](n2cc(F)c(N)nc2=O)C[C@@H]1O [Cpd. No. 6, (2R,3S,5R)-5-(4-amino-5-fluoro-2-oxopyrimidin-1(2H)-yl)-3-hydroxy-2-(hydroxymethyl)tetrahydrofuran-2-carbonitrile]
